Assay results published in the supplement of paper PMC10307832.

Experiments:
Assay in all cases: relative viability (nuclei count vs DMSO), 5 days (fraction); higher = more cells survive
[1] = compound: CC1CC(=O)N(C2=CN=C(N=C2N1C3CCCC3)NC4=C(C=C(C=C4)C(=O)NC5CCN(CC5)C)OC)C [NPK76-II-72-1] + C[C@@H](Oc1cc(-c2cnn(C3CCNCC3)c2)cnc1N)c1c(Cl)ccc(F)c1Cl [Crizotinib] (partner 1 µM)
How it was run: (§1)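 Lung cancer cell lines in 1536-well plates got either a single drug or a fixed anchor-drug dose together with five library-drug doses (not always all listed) in √10 steps, by pin tool, on the day after seeding. Nuclei were counted after 5 days, and relative viability is the treated-to-vehicle ratio of nuclei counts. Values are medians of duplicate plates.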

[2] = compound: CC1CC(=O)N(C2=CN=C(N=C2N1C3CCCC3)NC4=C(C=C(C=C4)C(=O)NC5CCN(CC5)C)OC)C [NPK76-II-72-1] + CC(=O)c1c(C)c2cnc(Nc3ccc(N4CCNCC4)cn3)nc2n(C2CCCC2)c1=O [Palbociclib] (partner 0.5 µM)
How it was run: as §1

BI-2536 + Vorinostat = compound: CC[C@@H]1C(=O)N(C)c2cnc(Nc3ccc(C(=O)NC4CCN(C)CC4)cc3OC)nc2N1C1CCCC1 [BI-2536] + O=C(CCCCCCC(=O)Nc1ccccc1)NO [Vorinostat] (partner 1 µM)
How it was run: as §1

BI-2536 + Bortezomib = compound: CC[C@@H]1C(=O)N(C)c2cnc(Nc3ccc(C(=O)NC4CCN(C)CC4)cc3OC)nc2N1C1CCCC1 [BI-2536] + CC(C)C[C@H](NC(=O)[C@H](Cc1ccccc1)NC(=O)c1cnccn1)B(O)O [Bortezomib] (partner 0.002 µM)
How it was run: as §1

Cell Line | relative viability ([1]; first compound 0.01 µM) | relative viability ([1]; first compound 0.03162 µM) | relative viability ([1]; first compound 0.1 µM) | relative viability ([1]; first compound 0.3162 µM) | relative viability ([1]; first compound 1 µM) | relative viability ([2]; first compound 0.01 µM) | relative viability ([2]; first compound 0.03162 µM) | relative viability ([2]; first compound 0.1 µM) | relative viability ([2]; first compound 0.3162 µM) | relative viability ([2]; first compound 1 µM) | relative viability (BI-2536 + Vorinostat; first compound 0.01 µM) | relative viability (BI-2536 + Vorinostat; first compound 0.03162 µM) | relative viability (BI-2536 + Vorinostat; first compound 0.1 µM) | relative viability (BI-2536 + Vorinostat; first compound 0.3162 µM) | relative viability (BI-2536 + Vorinostat; first compound 1 µM) | relative viability (BI-2536 + Bortezomib; first compound 0.01 µM) | relative viability (BI-2536 + Bortezomib; first compound 0.03162 µM) | relative viability (BI-2536 + Bortezomib; first compound 0.1 µM) | relative viability (BI-2536 + Bortezomib; first compound 0.3162 µM) | relative viability (BI-2536 + Bortezomib; first compound 1 µM)
201T | 1.01 | 1.01 | 1.02 | 1.01 | 1.01 | 0.379 | 0.385 | 0.348 | 0.356 | 0.364 | 0.967 | 0.98 | 0.841 | 0.254 | 0.31 | 1.11 | 1.12 | 1.07 | 1.09 | 0.367
A549 | 0.704 | 0.798 | 0.775 | 0.803 | 0.8 |  |  |  |  |  |  |  |  |  |  |  |  |  |  | 
A-427 | 0.798 | 0.908 | 0.907 | 0.777 | 0.969 | 0.494 | 0.537 | 0.529 | 0.532 | 0.565 | 0.871 | 0.859 | 0.296 | 0.19 | 0.165 | 0.955 | 1.04 | 0.763 | 0.123 | 0.1
ABC-1 | 0.907 | 1.13 | 1.06 | 1.01 | 1.1 | 0.522 | 0.646 | 0.791 | 0.511 | 0.672 | 1.22 | 1.06 | 0.613 | 0.418 | 0.51 | 0.252 | 0.29 | 0.265 | 0.242 | 0.213
BEN | 0.89 | 1.07 | 0.908 | 0.77 | 0.893 | 0.432 | 0.478 | 0.45 | 0.509 | 0.48 | 0.574 | 0.452 | 0.412 | 0.386 | 0.38 | 0.61 | 0.896 | 0.43 | 0.223 | 0.287
CAL-12T | 0.685 | 0.665 | 0.719 | 0.544 | 0.674 | 0.334 | 0.498 | 0.517 | 0.404 | 0.491 | 0.817 | 0.695 | 0.278 | 0.147 | 0.129 | 0.926 | 0.823 | 0.393 | 0.182 | 0.192
COR-L23 | 0.73 | 0.715 | 0.738 | 0.619 | 0.647 | 0.264 | 0.304 | 0.314 | 0.29 | 0.342 | 0.438 | 0.281 | 0.135 | 0.0945 | 0.0882 | 1.08 | 0.901 | 0.27 |  | 0.101
COR-L 105 | 0.709 | 0.899 | 0.643 | 0.61 | 0.979 | 0.389 | 0.417 | 0.379 | 0.439 | 0.469 | 0.959 | 0.79 | 0.52 | 0.349 | 0.334 | 0.764 | 0.761 | 0.344 | 0.245 | 0.237
Calu-6 | 0.757 | 0.784 | 0.763 | 0.713 | 0.861 |  |  |  |  |  |  |  |  |  |  | 0.871 | 0.62 | 0.183 | 0.144 | 0.141
ChaGo-K-1 | 1.11 | 1.18 | 1.11 | 1.12 | 1.19 | 0.871 | 0.891 | 0.892 | 0.925 | 0.945 | 0.764 | 0.749 | 0.265 | 0.182 | 0.196 | 0.905 | 0.852 | 0.469 | 0.301 | 0.281
EBC-1 | 0.178 | 0.21 | 0.19 | 0.214 | 0.184 |  |  |  |  |  |  |  |  |  |  | 0.477 | 0.46 | 0.222 | 0.217 | 0.175
EKVX | 0.787 | 1.16 | 0.936 | 0.832 | 0.922 | 0.334 | 0.401 | 0.368 |  | 0.464 | 0.875 | 0.729 | 0.676 | 0.407 | 0.208 | 0.976 | 1.16 | 1.03 | 0.164 | 0.148
EMC-BAC-2 | 0.765 | 0.817 | 0.658 | 0.783 | 0.823 | 0.54 | 0.561 | 0.476 | 0.516 | 0.538 | 0.468 | 0.416 | 0.171 | 0.144 | 0.131 | 1.08 | 1.11 | 1.06 | 0.628 | 0.172
EPLC-272H | 0.865 | 0.865 | 1.02 | 0.892 | 0.91 | 0.332 | 0.339 | 0.335 | 0.329 | 0.369 | 0.339 | 0.126 | 0.0766 | 0.112 | 0.0972 | 0.939 | 0.891 |  | 0.786 | 0.101
H3255 | 0.855 | 0.887 | 0.819 |  | 1.16 | 0.351 | 0.319 | 0.305 | 0.3 | 0.304 | 0.736 | 0.786 | 0.447 | 0.519 | 0.306 | 0.824 | 0.679 | 0.36 | 0.241 | 0.276
